Source: publication PMC3354620 (Journal of the American Chemical Society, 2011)
“Also recorded” adds a separate entry of the source.

How the values were obtained:
A/M2-V27A [1] = target: T1, A/M2-V27A (Influenza A virus, UniProt P0DOF5, V27A); assay type: cell-based, Influenza A virus (Udorn strain)
A/M2-V27A [2] = target: T1, A/M2-V27A; settings: cited from earlier work
[3] = tested on: influenza A virus (A/Udorn/72) V27A mutant; assay type: cell-based

SMILES | inhibition against V27A mutant (in words) (A/M2-V27A [1]) | effect of V27A mutation on channel sensitivity to drug (A/M2-V27A [2]) | inhibition of A/M2-V27A virus replication [3]
NC12CC3CC(CC(C3)C1)C2 [Amantadine] | completely unable to inhibit | entirely resistant | no inhibition; also recorded: no effect
CC(N)C12CC3CC(CC(C3)C1)C2 (stereo not shown) [rimantadine] |  | entirely resistant | 
